The subject of test [1] is CDK1/Cyclin B. Kind of test: CDK1/Cyclin B kinase inhibition assay. Type of test: biochemical, starfish (Marthasterias glacialis). The procedure:
(§1) Values were background subtracted, and activities were calculated as pmoles of phosphate incorporated during a 10 min incubation. […] Controls were performed with appropriate dilutions of DMSO.
CDK1/Cyclin B was extracted in homogenisation buffer from M phase starfish (Marthasterias glacialis) oocytes and purified by affinity chromatography on p9^CKShs1-Sepharose beads, from which it was eluted with free p9^CKShs1 as previously described. […] After a 10 min incubation at 30 °C, 25 µL aliquots of supernatant were spotted onto P81 phosphocellulose paper and treated as described above.

Test [2] concerns the target DYRK1A (Rattus norvegicus, UniProt Q63470). Kind of test: DYRK1A kinase inhibition assay. Type of test: biochemical. Conditions: for DYRK1A inhibition at 30 µM, in words: concentration of 30 µM; for IC50 / DYRK1A (IC50 in μM): mean of triplicates, variation max 20%, ATP 15 µM, 30 °C. The procedure:
as §1
DYRK1A (rat, recombinant, expressed in E. coli as a GST fusion protein) was purified by affinity chromatography on glutathione-agarose and assayed as described.

The target of test [3] is Aurora 2 kinase. The arrangement: method as in PMID 20097074, PMID 20097066. The following applies: previous studies; cited from earlier work.
The test system of test [4] is cancer cell. Also noted: method as in PMID 19801998. The following applies: cited from earlier work.
In test [5] the test system is CDK4. The arrangement: method as in PMID 20097074, PMID 20097066. The following applies: previous studies; cited from earlier work.
In test [6] the test system is CDK2. Also noted: method as in PMID 20097074, PMID 20097066. Conditions: previous studies; cited from earlier work.
Test [7] concerns polo-box domain of Polo-like kinase 1. The arrangement: method as in PMID 19801998. The following applies: cited from earlier work.
The subject of test [8] is human colon cancer cells. Also noted: method as in doi:10.1016/j.procbio.2012.05.018. The following applies: cited from earlier work.
Test [9] relates to human lung cancer cells. Also noted: method as in PMID 15473647. Conditions: concentration of 20 μM; cited from earlier work.
Where [10] appears, read: mean of triplicates, variation max 20%, ATP 15 µM, histone H1, 30 °C.

Entries after “also recorded” stand apart in the source; their conditions may differ. Like-named read-outs stand apart in the source and are kept apart here.

Take `COc1cc2c3c(c1O)-c1c(ccc(OC)c1OC)CC3N(C)CC2` (single isomer, unassigned; (+)) [Compound 6, (+)-corydine]: the “CDK1/Cyclin B inhibition at 30 µM, in words” value (from here on “CDK1/Cyclin B inhibition”) in test [1] (concentration of 30 µM) was “inactive”. The compound further displayed an IC50 in [1] (setting [10]) of over 30 µM. In [2], the “DYRK1A inhibition at 30 µM, in words” value is “inactive” and the IC50 is over 30 µM.

In the case of `COc1ccc2c(c1O)-c1c3c(cc4c1C(C2)N(C)CC4)OCO3` (single isomer, unassigned; (+)) [Compound 9, (+)-bulbocapnine], the “CDK1/Cyclin B inhibition” value in test [1] (concentration of 30 µM) was “inactive”. In test [1] (setting [10]), the IC50 is over 30 µM. Besides, in [2], the “DYRK1A inhibition at 30 µM, in words” value is “inactive” and the IC50 is over 30 µM.

For `COc1ccc2c(c1O)-c1c(OC)c(O)cc3c1C(C2)N(C)CC3` (single isomer, unassigned; (+)) [Compound 10, (+)-N-methyllindcarpine], the “CDK1/Cyclin B inhibition” value in test [1] (concentration of 30 µM) is “inactive”. In addition, the IC50 in test [1] (setting [10]) is over 30 µM. Also, in test [2], the “DYRK1A inhibition at 30 µM, in words” value is “inactive” and the IC50 was over 30 µM.

On to `COc1cc2c(cc1O)CC1NCCc3cc4c(c-2c31)OCO4` (single isomer, unassigned; (+)) [Compound 11, (+)-actinodaphnine], for which the “CDK1/Cyclin B inhibition” value in test [1] (concentration of 30 µM) is “inactive”. The IC50 in test [1] (setting [10]) and in [2] was over 30 µM in each case. Further, in test [2], the “DYRK1A inhibition at 30 µM, in words” value is “inactive”.

Consider `COc1c2c(cc3c1-c1c4c(cc5c1C(C3)NCC5)OCO4)OCO2` (single isomer, unassigned; (+)) [Compound 12, (+)-11-methoxynorneolistine], for which, in [1], the “CDK1/Cyclin B inhibition” value is listed as “did not inhibit; also recorded: unable to inhibit” and the IC50 was over 30 µM.

As to `COc1cc2c3c(c1OC)-c1ccccc1CC3NCC2` (single isomer, unassigned; (+)) [Compound 15, (+)-N-nornuciferine], the “CDK1/Cyclin B inhibition” value in [1] (concentration of 30 µM) was “unable to inhibit”; in test [1] (concentration of 30 µM, listed as N-nornuciferine (15)), “did not inhibit”. For the same compound, the values for the concentration for half-maximal inhibition (IC50) in test [1] (setting [10]) and in [2] were over 30 µM and 4.2 µM, respectively.

Consider `COc1cc2c(cc1O)CC1c3c(cc(O)c(OC)c3-2)CCN1C` (single isomer, unassigned; (+)) [Compound 16, (+)-boldine], for which, in test [1] (concentration of 30 µM), the “CDK1/Cyclin B inhibition” value was “inactive”. In test [1] (setting [10]), this compound showed an IC50 of over 30 µM. In addition, in [2], the “DYRK1A inhibition at 30 µM, in words” value is “inactive” and the IC50 was over 30 µM.

On to `COc1cc([C@H]2OC[C@@H]3C(c4cc(OC)c(O)c(OC)c4)OC[C@H]23)ccc1O` (single isomer, unassigned; (-)) [Compound 5, (−)-medioresinol], for which 1.3 µM corresponded to half-maximal inhibition in test [1] (setting [10]) (IC50). Besides, in test [2], the “DYRK1A (IC50 in μM)” value is on record as “submicromolar” and the IC50 worked out at 0.1 µM.

Regarding `CN1CCc2cc3c(c4c2C1Cc1ccccc1-4)OCO3` (single isomer, unassigned; (-)) [Compound 7, (−)-roemerine], in [1] (concentration of 30 µM), the “CDK1/Cyclin B inhibition” value is “unable to inhibit; also recorded: inactive”. The IC50 in [1] (setting [10]) was over 30 µM. Moreover, in test [2], the “DYRK1A inhibition at 30 µM, in words” value is “inactive” and the IC50 was found to be 15 µM.

`COc1c2c3c(c(OC)c1OC)-c1ccccc1CC3NCC2` (single isomer, unassigned; (-)) [Compound 14, (−)-O-methylisopiline]: in [1] (concentration of 30 µM), the “CDK1/Cyclin B inhibition” value was “inactive”. The IC50 in test [1] (setting [10]) is over 30 µM. Besides, in test [2], the “DYRK1A inhibition at 30 µM, in words” value is “inactive” and the IC50 was over 30 µM.

With `COc1c(O)cc2c3c(cc4ccccc4c13)NC2=O` [Compound 1, aristolactam AII], the “CDK1/Cyclin B inhibition” value in [1] (concentration of 30 µM) was “inactive”. The IC50 in test [1] (setting [10]) was over 30 µM.

`COc1cc2c3c(cc4c(O)cccc4c3c1OC)NC2=O` [Compound 3, velutinam]: in test [1] (setting [10]), the IC50 turned out to be 1.5 µM. Also, in test [2], the “DYRK1A (IC50 in μM)” value is “submicromolar” and the midpoint of inhibition, the IC50, lay at 0.6 µM.

Consider `COc1c(O)cc2c3c(cc4ccc(O)cc4c13)NC2=O` [Compound 4, aristolactam AIIIA], for which the IC50 in test [3] was 2140 nM; in test [1] (setting [10]), 0.2 µM; in test [5] it was 1420 nM; in test [6] it was 140 nM; in test [2], 0.08 µM. The “cancer cell proliferation, mitotic arrest at G2/M phase, apoptosis” value in test [4] was “could inhibit cancer cell proliferation”. Besides, the “DYRK1A (IC50 in μM)” value in test [2] is given as “submicromolar”. Further, in test [7], the “ligand targeting the polo-box domain of Polo-like kinase 1” value is recorded as “new ligand”.

Take `O=C1c2ccccc2-c2c3c(cc4ccnc1c24)OCO3` [Compound 8, liriodenine]: the “CDK1/Cyclin B inhibition” value in test [1] (concentration of 30 µM) is recorded as “unable to inhibit”; in test [1] (concentration of 30 µM, listed as Liriodenine (8)), “did not inhibit”. The IC50 is over 30 µM in test [1] (setting [10]) and 3.1 µM in test [2]. Besides, the “growth of human colon cancer cells, G1/S cell cycle arrest” value in test [8] is recorded as “inhibited the growth”. Further, in test [9], the “apoptosis induction by inhibiting CDK1/Cyclin B kinase activity, G2/M cell cycle arrest” value was “induced apoptosis”.

`COc1cc2ccnc3c2c(c1OC)-c1ccccc1C3=O` [Compound 13, lysicamine]: the “CDK1/Cyclin B inhibition” value in test [1] (concentration of 30 µM) is “unable to inhibit”; in test [1] (concentration of 30 µM, listed as lysicamine (13)) it was “did not inhibit”. Moreover, the IC50 in test [1] (setting [10]) was over 30 µM; in test [2] it was 2.4 µM.

Usually IC50 stands for the concentration that gives 50% inhibition.

Source of the values: paper PMC6269938, “Natural Aristolactams and Aporphine Alkaloids as Inhibitors of CDK1/Cyclin B and DYRK1A” (Molecules, 2013).
